Reference: BigSolDB 2.1

Cc1cc(C)nc(Nc2ccccc2)n1
solubility (mole fraction)
Conditions	283.15 K	288.15 K	293.15 K	298.15 K	303.15 K	308.15 K	313.15 K	318.15 K	323.15 K
in cyclohexane	0.00583	0.00751	0.0095	0.0123	0.0157	0.0213	0.0304	0.0435	0.0614
in ethanol	0.0146	0.0175	0.0211	0.0267	0.0332	0.0438	0.0577	0.0785	0.112
in isobutanol	0.0148	0.0178	0.0236	0.028	0.0345	0.0454	0.0652	0.0937	0.13
in isopropanol	0.0103	0.0126	0.016	0.0198	0.025	0.0324	0.0429	0.0611	0.0861
in methanol	0.0138	0.0162	0.0193	0.0245	0.0311	0.0418	0.0568	0.0765	0.107
in n-butanol	0.0193	0.0251	0.0317	0.0389	0.0498	0.0638	0.0813	0.112	0.145
in n-propanol	0.0179	0.0215	0.0264	0.0316	0.037	0.0481	0.0682	0.0971	0.131
